Legend:
Experiment in all cases: relative viability (nuclei count vs DMSO), 5 days (fraction); higher = more cells survive
Dovitinib + Navitoclax = compound: CN1CCN(c2ccc3nc(-c4c(N)c5c(F)cccc5[nH]c4=O)[nH]c3c2)CC1 [Dovitinib] + CC1(C)CCC(c2ccc(Cl)cc2)=C(CN2CCN(c3ccc(C(=O)NS(=O)(=O)c4ccc(N[C@H](CCN5CCOCC5)CSc5ccccc5)c(S(=O)(=O)C(F)(F)F)c4)cc3)CC2)C1 [Navitoclax] (partner 0.5 µM)
Method in brief: (§1)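 For relative viability, nuclei counts in treated wells were divided by those in vehicle wells. Lung cancer cell lines had been pin-tool dosed in 1536-well plates the day after seeding and cultured for 5 days, then fixed and stained in one step (final 0.05% Triton X-100, 1% formaldehyde, 1 ug/ml Hoechst) and imaged at 4×. Doses were one drug alone or a fixed anchor-drug dose plus five library-drug doses (not always all listed) in √10 steps, and values are duplicate-plate medians.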

Dovitinib + Crizotinib = compound: CN1CCN(c2ccc3nc(-c4c(N)c5c(F)cccc5[nH]c4=O)[nH]c3c2)CC1 [Dovitinib] + C[C@@H](Oc1cc(-c2cnn(C3CCNCC3)c2)cnc1N)c1c(Cl)ccc(F)c1Cl [Crizotinib] (partner 1 µM)
Method in brief: as §1

Dovitinib + Dasatinib = compound: CN1CCN(c2ccc3nc(-c4c(N)c5c(F)cccc5[nH]c4=O)[nH]c3c2)CC1 [Dovitinib] + Cc1nc(Nc2ncc(C(=O)Nc3c(C)cccc3Cl)s2)cc(N2CCN(CCO)CC2)n1 [Dasatinib] (partner 0.075 µM)
Method in brief: as §1

Dovitinib + Vorinostat = compound: CN1CCN(c2ccc3nc(-c4c(N)c5c(F)cccc5[nH]c4=O)[nH]c3c2)CC1 [Dovitinib] + O=C(CCCCCCC(=O)Nc1ccccc1)NO [Vorinostat] (partner 1 µM)
Method in brief: as §1

Row | Cell Line | relative viability (Dovitinib + Navitoclax; first compound 0.02 µM) | relative viability (Dovitinib + Navitoclax; first compound 0.06325 µM) | relative viability (Dovitinib + Navitoclax; first compound 0.2 µM) | relative viability (Dovitinib + Navitoclax; first compound 0.6325 µM) | relative viability (Dovitinib + Navitoclax; first compound 2 µM) | relative viability (Dovitinib + Crizotinib; first compound 0.02 µM) | relative viability (Dovitinib + Crizotinib; first compound 0.06325 µM) | relative viability (Dovitinib + Crizotinib; first compound 0.2 µM) | relative viability (Dovitinib + Crizotinib; first compound 0.6325 µM) | relative viability (Dovitinib + Crizotinib; first compound 2 µM) | relative viability (Dovitinib + Dasatinib; first compound 0.02 µM) | relative viability (Dovitinib + Dasatinib; first compound 0.06325 µM) | relative viability (Dovitinib + Dasatinib; first compound 0.2 µM) | relative viability (Dovitinib + Dasatinib; first compound 0.6325 µM) | relative viability (Dovitinib + Dasatinib; first compound 2 µM) | relative viability (Dovitinib + Vorinostat; first compound 0.02 µM) | relative viability (Dovitinib + Vorinostat; first compound 0.06325 µM) | relative viability (Dovitinib + Vorinostat; first compound 0.2 µM) | relative viability (Dovitinib + Vorinostat; first compound 0.6325 µM) | relative viability (Dovitinib + Vorinostat; first compound 2 µM)
1 | SK-MES-1 | 1.24 | 1.21 | 1.16 | 1.31 | 1.27 | 1.04 | 0.957 | 0.932 | 1.01 | 0.954 | 0.349 | 0.426 | 0.417 | 0.414 | 0.477 | 1.08 | 1.13 | 1.17 | 1.09 | 1.12
2 | NCI-H1666 | 0.835 | 0.966 | 0.887 | 0.901 | 1.03 | 0.966 | 1.14 | 1.08 | 0.964 | 1.04 | 0.767 | 0.839 | 0.845 | 0.799 | 0.762 | 1.15 | 0.919 | 1.11 | 1.04 | 1.05
3 | NCI-H1355 | 0.917 | 0.958 | 1.04 | 0.985 | 1.08 | 1.06 | 1.02 | 1.06 | 1.09 | 1.06 | 0.678 | 0.673 | 0.723 | 0.744 | 0.771 | 0.671 | 0.638 | 0.628 | 0.695 | 0.704
4 | HCC-827 | 1.03 | 1.02 | 1.07 | 1 | 0.974 | 0.91 | 0.867 | 0.932 | 0.93 | 0.94 | 0.358 | 0.327 | 0.357 | 0.366 | 0.407 | 0.799 | 0.867 | 0.876 | 0.841 | 0.805
5 | HARA | 1.16 | 1.16 | 1.12 | 1.15 | 1.15 | 1.07 | 1.08 | 0.985 | 1.1 | 1.07 | 0.319 | 0.152 | 0.275 | 0.226 | 0.291 | 0.553 | 0.542 | 0.645 | 0.676 | 0.569
6 | HCC-366 | 1.07 | 1.16 | 1.02 | 1.08 | 0.971 | 0.571 | 0.6 | 0.486 | 0.61 | 0.562 | 0.687 | 0.604 | 0.648 | 0.616 | 0.618 | 0.325 | 0.353 | 0.338 | 0.429 | 0.385
7 | NCI-H322M | 1.17 | 1.25 | 1.21 | 1.27 | 1.23 | 0.893 | 0.874 | 0.976 | 0.928 | 1.06 | 0.24 | 0.263 | 0.243 | 0.249 | 0.284 | 0.768 | 0.831 | 0.807 | 0.926 | 0.84
8 | NCI-H2347 | 0.892 | 0.812 | 0.86 | 0.707 | 0.932 | 0.784 | 0.653 | 0.79 | 0.961 | 0.676 | 0.317 | 0.276 | 0.322 | 0.303 | 0.33 | 0.694 | 0.647 | 0.561 | 0.692 | 0.686
9 | NCI-H1975 | 1.07 | 1.01 | 1.09 | 1 | 1.2 | 0.898 | 0.934 | 1.02 | 0.937 | 0.95 | 0.346 | 0.348 | 0.408 | 0.364 | 0.453 | 0.692 | 0.728 | 0.662 | 0.734 | 0.682
10 | UMC-11 | 0.364 | 0.308 | 0.373 | 0.297 | 0.318 | 0.636 | 0.716 | 0.576 | 0.514 | 0.733 | 0.423 | 0.481 | 0.492 | 0.493 | 0.492 | 0.449 | 0.422 | 0.478 | 0.383 | 0.431
11 | A-427 | 0.91 | 0.933 | 0.942 | 0.902 | 0.822 | 0.854 | 0.812 | 0.85 | 0.708 | 0.819 | 0.624 | 0.654 | 0.673 | 0.634 | 0.698 | 0.83 | 0.845 | 0.895 | 0.941 | 0.991
12 | LCLC-97TM1 | 0.368 | 0.384 | 0.339 | 0.403 | 0.478 | 0.332 | 0.305 | 0.372 | 0.275 | 0.253 | 0.8 | 0.896 | 0.887 | 0.876 | 0.775 | 0.719 | 0.612 | 0.734 | 0.688 | 0.751
13 | HCC-15 | 0.777 | 0.701 | 0.707 | 0.708 | 0.7 | 0.756 | 0.841 | 0.719 | 0.79 | 0.812 | 0.673 | 0.548 | 0.664 | 0.59 | 0.561 | 0.931 | 0.873 | 0.815 | 0.837 | 0.85
14 | NCI-H647 | 0.958 | 1.04 | 1.14 | 1.04 | 0.949 | 1.03 | 1.14 | 1.24 | 1.01 | 1.1 | 0.151 | 0.152 | 0.209 | 0.171 | 0.21 | 0.52 | 0.658 | 0.659 | 0.434 | 0.851
15 | SW 1573 | 1.03 | 0.934 | 1.02 | 0.97 | 1 | 0.773 | 0.809 | 0.805 | 0.749 | 0.804 | 0.461 | 0.502 | 0.513 | 0.409 | 0.651 | 0.65 | 0.908 | 0.6 | 0.702 | 1.02
16 | NCI-H1651 | 1.09 | 1.04 | 1.03 | 1.02 | 1.03 | 0.927 | 0.882 | 0.824 | 0.829 | 0.858 | 0.388 | 0.43 | 0.484 | 0.469 | 0.486 | 0.491 | 0.593 | 0.539 | 0.597 | 0.543
